Data set [1] deals with human MAIT TCR-transduced Jurkat T cells and MR1-overexpressed C1R cells. As to the kind of experiment: MAIT reporter cell activation assay (surface CD69 on Jurkat.MAIT). The settings on record: Jurkat.MAIT + C1R.MR1, 16 h. The class given is cell-based. On the procedure: MAIT activation was evaluated using a well established reporter assay[17] by co-culturing two cell lines (human MAIT TCR-transduced Jurkat T cells and MR1-overexpressed C1R cells, Fig. 3g).
MAIT reporter cell activation assays and MR1 upregulation assays were performed by slight modifications to reported methods. Briefly, Jurkat cells transduced with genes encoding a MAIT TCR comprising the TRAV1-2-TRAJ33 invariant α chain, and a TRBV6-1 β chain, were tested for activation by co-incubation with compounds and C1R antigen-presenting cells expressing MR1 (CIR.MR1) for 16 h or over a time course as indicated. Cells were subsequently stained with PE-Cy7-conjugated anti-CD3 (UCHT1, eBioscience, 1:300), and APC-conjugated anti-CD69 (BD, 1:25) antibodies as well as biotinylated anti-MR1 mAb 26.5, a gift from Dr Ted Hansen, Washington University School of Medicine, St Louis, MO[53], followed by Streptavidin-PE (BD, 1:1,000), before analysis by on a FACS CantoII (BD) flow cytometer. Activation of Jurkat.MAIT was measured by an increase in surface CD69 expression. MR1 expression was detected on gated C1R.MR1 cells in the same assay. […]
MAIT reporter cell activation assay
Conducted as described previously16. Jurkat cells transduced with genes encoding a MAIT TCR comprising the TRAV1-2-TRAJ33 invariant α chain and a TRBV6-1 β chain were co-incubated with C1R antigen presenting cells expressing MR1 (CIR.MR1) in the presence of graded amounts of ligands for 16 h. Cells were subsequently stained with PE-Cy7-conjugated anti-CD3 (eBioscience), and APC-conjugated anti-CD69 (BD Biosciences) antibodies, followed by Streptavidin-PE (BD Biosciences), before analysis by flow cytometry. Activation of Jurkat.MAIT cells was measured by an increase in surface CD69 expression.

Data set [2] can be described thus: Stability in aqueous media (LCMS). To be noted: for t1/2: C0 0.065 mM.
Method: (§1) Stock solutions of either crude (3a, 3b and 9) or purified compounds (3c, 10 and 11) in DMSO-d6, with a known concentration calibrated using the PULCON NMR technique[52], were dissolved in aqueous buffers, such as TBS buffer (10 mM Tris, 150 mM NaCl, pH 8.0), PBS (pH 7.4), MilliQ water (pH 6.8), or aqueous ammonium acetate buffer (20 mM, pH 5.4, 150 mM NaCl). Consumption of 3 was monitored by LCMS.
(§2) Stability in aqueous media. TBS buffer (10 mM Tris, 150 mM NaCl,
(§3) pH 8.0), PBS (pH 7.4), MilliQ water (pH 6.8), or ammonium acetate buffer (20 mM, 150 mM
(§4) The initial concentration was quantified by measuring the LCMS UV chromatogram
(§5) absorbance peak area at 365 nm. Data shown as % of initial concentration.
Data set [3] deals with T1, human MR1 (Homo sapiens, UniProt Q95460).
T1 construct: Genes encoding soluble human MR1 or human β2m were expressed; made in house
The experiment in a line: MR1 refolding with ligand. The class given is binding. The settings on record: in the presence of the compound. On the procedure: E. coli were pelleted and resuspended in a buffer containing 50 mM Tris, 25% (w/v) sucrose, 1 mM EDTA, 10 mM DTT pH 8.0.

Data set [4] deals with MR1 on C1R.MR1 cells. As to the kind of experiment: Upregulation of MR1 surface expression. The class given is cell-based, human. To be noted: 24 h time course, mAb 26.5. On the procedure:
MAIT reporter cell activation assays and MR1 upregulation assays were performed by slight modifications to reported methods. Briefly, Jurkat cells transduced with genes encoding a MAIT TCR comprising the TRAV1-2-TRAJ33 invariant α chain, and a TRBV6-1 β chain, were tested for activation by co-incubation with compounds and C1R antigen-presenting cells expressing MR1 (CIR.MR1) for 16 h or over a time course as indicated. Cells were subsequently stained with PE-Cy7-conjugated anti-CD3 (UCHT1, eBioscience, 1:300), and APC-conjugated anti-CD69 (BD, 1:25) antibodies as well as biotinylated anti-MR1 mAb 26.5, a gift from Dr Ted Hansen, Washington University School of Medicine, St Louis, MO[53], followed by Streptavidin-PE (BD, 1:1,000), before analysis by on a FACS CantoII (BD) flow cytometer. Activation of Jurkat.MAIT was measured by an increase in surface CD69 expression. MR1 expression was detected on gated C1R.MR1 cells in the same assay.

For data set [5], the system named is human MAIT cells. As to the kind of experiment: In vitro PBMC stimulation assay (intracellular cytokine staining). To be noted: human PBMCs alone or with THP-1 cells. The class given is cell-based. On the procedure: To assess the ability of 11 to activate MAIT cells, human PBMCs were cultured alone, or with THP-1 cells, in the presence of the compounds, and cytokine production assessed by intracellular cytokine staining.
Stimulation of PBMCs was performed essentially as previously described. Briefly, 5 × 10^5 PBMCs were cultured, alone or with 1 × 10^5 THP-1 cells, overnight with or without compounds 3c or 11 at a range of doses or with PMA and ionomycin (5 ng ml^−1 and 1 μg ml^−1 final concentrations, respectively) as a positive control. BD GolgiStop (1:1,000 dilution) was added after the first hour of stimulation. Cells were stained for surface markers using human MR1-5-OP-RU tetramer (PE, 1:300), and monoclonal antibodies to CD3 (PE-CF594, UCHT1, BD Horizon, 1:50), CD161 (PE-Cy7, HP-3G10, Biolegend, 1:50) for 30 min on ice and fixed in 1% paraformaldehyde before cytokine production by MAIT cells was detected by intracellular cytokine staining with monoclonal antibodies to TNF (APC, MAb11, eBioscience, 1:50) and IFNγ (AlexaFluor700, B27, BD 1:50) in the presence of 0.3% saponin. Data was acquired on a BD LSR-Fortessa and analysed using FlowJo software (Tree Star).

Data set [6] is described as follows: Stability in DMSO (NMR). The class given is physicochemical. To be noted: for days at room temperature.
A short description of data set [7]: physchem. To be noted: for half-life: PBS buffer.
Method: as §1, §2, §3, §4, §5
[8] abbreviates: PBS pH 7.4, 37 °C, DMSO stock diluted into buffer.

Usually EC50 stands for the concentration that produces a half-maximal response. Broadly, the half-life is the time needed for the level to fall by half in the phase considered.

T1 sequence (P61769 21-119): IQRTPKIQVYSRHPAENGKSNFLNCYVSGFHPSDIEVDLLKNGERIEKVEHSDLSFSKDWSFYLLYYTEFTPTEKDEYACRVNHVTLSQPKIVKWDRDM
T1 sequence (Q95460 23-302): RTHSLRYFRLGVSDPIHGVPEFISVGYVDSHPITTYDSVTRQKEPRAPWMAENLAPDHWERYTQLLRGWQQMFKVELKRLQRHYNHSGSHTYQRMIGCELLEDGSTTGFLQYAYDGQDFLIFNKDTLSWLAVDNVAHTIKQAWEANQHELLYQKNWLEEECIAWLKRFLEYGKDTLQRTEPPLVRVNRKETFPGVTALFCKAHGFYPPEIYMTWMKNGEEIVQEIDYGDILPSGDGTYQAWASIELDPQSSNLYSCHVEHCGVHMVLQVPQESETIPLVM

For the compound `Cc1cnc2c(=O)[nH]c(=O)nc-2n1C[C@H](O)[C@H](O)[C@H](O)CO` [4c], the EC50 in data set [1] was > 100 nM.
Take `CC(=O)C(C)=Nc1c(NCC(O)C(O)C(O)CO)[nH]c(=O)[nH]c1=O` [3a, 5-(1-methyl-2-oxopropylideneamino)-6-D-ribitylaminouracil]: the “time to complete degradation” value in data set [2] (pH 8.0, 15 °C) is given as < 5 min. Besides, the EC50 in data set [1] is 24 nM.
On to `CC(=O)/C=N/c1c(N(C)C[C@H](O)[C@H](O)[C@H](O)CO)[nH]c(=O)[nH]c1=O` [compound 9], for which the t1/2 is 1.92 h in data set [2] (PBS pH 7.4, 15 °C) and 0.65 h in data set [2] (setting [8]). For the same compound, the EC50 in data set [1] is 14 ± 14 nM.
`Nc1c(NC[C@H](O)[C@H](O)[C@H](O)CO)[nH]c(=O)[nH]c1=O` [compound 1, 5-amino-6-D-ribitylaminouracil, reference compound]: the concentration for a half-maximal effect (EC50) in data set [1] was found to be 18 nM.
For `CC(=O)/C=C/c1c(CC[C@H](O)[C@H](O)[C@H](O)CO)[nH]c(=O)[nH]c1=O` [compound 11], the aqueous stability result in data set [2] (PBS buffer pH 7.4, 37 °C, 5 days) is recorded as “no degradation observed over 5 days”. In addition, the “refolding of human MR1” value in data set [3] is “readily refolded”. Besides, the MR1 surface expression entry in data set [4] is recorded as “continued to increase over 24 h”. The “cytokine production by human MAIT cells” value in data set [5] was “stimulated the production of interferon-γ (IFNγ) and tumour necrosis factor (TNF)”.
For the compound `CC(=O)C=Nc1c(NCC(O)C(O)C(O)CO)[nH]c(=O)[nH]c1=O` [3c, 5-(2-oxopropylideneamino)-6-D-ribitylaminouracil], the “stable in DMSO solution” value in data set [6] is reported as > 95%. The t1/2 was 5.7 h in data set [2] (PBS pH 7.4, 15 °C); 1.47 h in data set [2] (setting [8]); 0.733 h in data set [2] (pH 5.4 ammonium acetate buffer, 15 °C); 0.217 h in data set [2] (pH 5.4 ammonium acetate buffer, 37 °C); 12.3 h in data set [2] (pH 6.8 MilliQ water, 15 °C); 2.18 h in data set [2] (pH 6.8 MilliQ water, 37 °C). Also, the half-life in data set [2] (pH 6.8 (MilliQ water), 15 °C, 0.065 mM) is 12 h; in data set [7] (pH 7.4), 0.2 h; in data set [7] (pH 8), 14 h. Also, the “time at which MR1 upregulation peaked” value in data set [4] was 4 h. In data set [7] (MilliQ water, pH 6.8), this compound came in with a half-life at 1 mM of 7.68 h. The compound also returned a half-life at 0.065 mM in data set [7] (TBS buffer, pH 8) of 14.4 h. This compound also displayed a half-life at 0.25 mM in data set [7] (TBS buffer, pH 8) of 14.9 h. The compound also had a half-life at 10 mM in data set [7] (TBS buffer, pH 8) of 8.63 h.
Regarding `CC(=O)/C=C/c1c(N(C)C[C@H](O)[C@H](O)[C@H](O)CO)[nH]c(=O)[nH]c1=O` [compound 10], the t1/2 in data set [2] (PBS pH 7.4, 15 °C) stood at 10.2 h; in data set [2] (setting [8]), 2.25 h. For the same compound, the EC50 in data set [1] is > 10000 nM.
In the case of `O=CC=Nc1c(NCC(O)C(O)C(O)CO)[nH]c(=O)[nH]c1=O` [3b, 5-(2-oxoethylideneamino)-6-D-ribitylaminouracil], the EC50 in data set [1] amounted to 0.51 nM. The compound also came in with a half-life at 0.065 mM in data set [7] (TBS buffer, pH 8) of 0.3 h.

The values are drawn from publication PMC5344979, “Stabilizing short-lived Schiff base derivatives of 5-aminouracils that activate mucosal-associated invariant T cells” (Nature Communications, 2017).
